The numbers were not newly measured in US20040167355A1, “Hydrocarbon products and methods of preparing hydrocarbon products” (priority 2003, published 2004), which cites them from elsewhere.

The conditions of data set [1]: 1% solution of the sodium salt of the surfactant.
The conditions of data set [2]: 25° C.; 450 ppm surfactant, 420 ppm hardness (3:1 Ca++:Mg++).

On to `CCCCCCCCCCC(C)c1ccc(S(=O)(=O)O)cc1` (stereo not shown) [2-Phenyl Dodecyl Benzene Sulfonate], for which the Krafft temperature in data set [1] was 36 °C. Also, in data set [2], the “loss of surfactant in hard water” value is given as 100%.
With `CCCCCCCC(C)CCC(C)c1ccc(S(=O)(=O)O)cc1` (stereo not shown) [5-Methyl-2-Phenyl Dodecyl Benzene Sulfonate], in data set [1], the Krafft temperature was 16 °C. Also, the “loss of surfactant in hard water” value in data set [2] was 5%.
